Assay results published in PubChem BioAssay AID248 (DTP/NCI, 2004).
Inconclusive results and toxic doses are left out.

Test system: L1210 leukemia ip in BDF1 mice, survival T/C
Assay: NCI In Vivo Anticancer Drug Screen. Data for tumor model L1210 Leukemia (intraperitoneal) in B6D2F1 (BDF1) mice
Settings: endpoint: mean survival time, higher = longer survival
In short: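 Antitumor effect is assessed in tumor-bearing animals. Survival in the compound arm is compared with a vehicle-dosed control arm and expressed as their quotient.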

[1] = dose: 100.0 mg/kg/injection, schedule: Q01DX009 (ip), vehicle: saline
[2] = dose: 100.0 mg/kg/injection, schedule: Q04DX003 (ip), vehicle: saline
[3] = dose: 200.0 mg/kg/injection, schedule: Q04DX003 (ip), vehicle: saline
[4] = dose: 50.0 mg/kg/injection, schedule: Q01DX009 (ip), vehicle: Klucel (hydroxypropylcellulose) (HPC)
[5] = dose: 100.0 mg/kg/injection, schedule: Q01DX009 (ip), vehicle: Klucel (hydroxypropylcellulose) (HPC)
[6] = dose: 200.0 mg/kg/injection, schedule: Q01DX009 (ip), vehicle: Klucel (hydroxypropylcellulose) (HPC)
[7] = dose: 12.5 mg/kg/injection, schedule: Q01DX009 (ip), vehicle: saline with Tween-80
[8] = dose: 25.0 mg/kg/injection, schedule: Q01DX009 (ip), vehicle: saline with Tween-80
[9] = dose: 100.0 mg/kg/injection, schedule: Q04DX003 (ip), vehicle: Klucel (hydroxypropylcellulose) (HPC)
[10] = dose: 200.0 mg/kg/injection, schedule: Q04DX003 (ip), vehicle: Klucel (hydroxypropylcellulose) (HPC)
[11] = dose: 400.0 mg/kg/injection, schedule: Q04DX003 (ip), vehicle: Klucel (hydroxypropylcellulose) (HPC)
[12] = dose: 200.0 mg/kg/injection, schedule: Q01DX009 (ip), vehicle: saline
[13] = dose: 400.0 mg/kg/injection, schedule: Q01DX009 (ip), vehicle: saline
[14] = dose: 50.0 mg/kg/injection, schedule: Q04DX003 (ip), vehicle: saline
[15] = dose: 100.0 mg/kg/injection, schedule: Q04DX003 (ip), vehicle: saline with Tween-80
[16] = dose: 200.0 mg/kg/injection, schedule: Q04DX003 (ip), vehicle: saline with Tween-80
[17] = dose: 400.0 mg/kg/injection, schedule: Q04DX003 (ip), vehicle: saline with Tween-80

CCN(CC)CC(=O)NCC(CCN1CCOCC1)(CC(C)C)c1cccc2ccccc12 (centres undefined)
T/C (dose: 50.0 mg/kg/injection, schedule: Q01DX009 (ip), vehicle: saline): 111 % of control
T/C [1]: 105 % of control
T/C [2]: 96 % of control
T/C [3]: 97 % of control

Nc1nc(N)c(CCCCc2ccccc2)c(-c2ccccc2)n1
T/C [4]: 98 % of control
T/C [5]: 95 % of control
T/C [6]: 95 % of control

CCN(CC)C(=S)N1C(=O)C2C3CCC(O3)C2C1=O (centres undefined)
T/C (dose: 6.25 mg/kg/injection, schedule: Q01DX009 (ip), vehicle: saline with Tween-80): 97 % of control
T/C (dose: 6.25 mg/kg/injection, schedule: Q04DX002 (ip), vehicle: saline): 107 % of control
T/C [7]: 101 % of control
T/C (dose: 12.5 mg/kg/injection, schedule: Q04DX002 (ip), vehicle: saline): 104 % of control
T/C [8]: 101 % of control
T/C (dose: 25.0 mg/kg/injection, schedule: Q04DX002 (ip), vehicle: saline): 100 % of control

C/C(=N/OC(=O)N(C)C)c1ccccc1
T/C (dose: 100.0 mg/kg/injection, schedule: Q01DX001 (ip), vehicle: carboxymethylcellulose (CMC)): 104 % of control
T/C (dose: 200.0 mg/kg/injection, schedule: Q01DX001 (ip), vehicle: carboxymethylcellulose (CMC)): 101 % of control
T/C (dose: 400.0 mg/kg/injection, schedule: Q01DX001 (ip), vehicle: carboxymethylcellulose (CMC)): 90 % of control

CCCCC(CCCC)NCC(C)OC(=O)c1ccc(N)cc1 (centres undefined)
T/C (dose: 9.5 mg/kg/injection, schedule: Q01DX001 (ip), vehicle: other): 100 % of control
T/C (dose: 19.0 mg/kg/injection, schedule: Q01DX001 (ip), vehicle: other): 105 % of control
T/C (dose: 38.0 mg/kg/injection, schedule: Q01DX001 (ip), vehicle: other): 96 % of control
T/C (dose: 75.0 mg/kg/injection, schedule: Q01DX001 (ip), vehicle: other): 92 % of control

O=[N+]([O-])c1cc(Br)cc2c1nc(NCCCO)c1ccccc12
T/C [9]: 103 % of control
T/C [10]: 109 % of control
T/C [11]: 109 % of control

NC(=O)C(N)CSCc1ccccc1 (centres undefined)
T/C [4]: 95 % of control
T/C [5]: 95 % of control
T/C [1]: 89 % of control
T/C [6]: 100 % of control
T/C [12]: 91 % of control
T/C [13]: 91 % of control

NC(=O)c1cc([N+](=O)[O-])c(N)c([N+](=O)[O-])c1
T/C (dose: 100.0 mg/kg/injection, schedule: Q01DX001 (ip), vehicle: saline with Tween-80): 100 % of control
T/C (dose: 200.0 mg/kg/injection, schedule: Q01DX001 (ip), vehicle: saline with Tween-80): 95 % of control
T/C (dose: 400.0 mg/kg/injection, schedule: Q01DX001 (ip), vehicle: saline with Tween-80): 100 % of control

CCCCCc1cc(O)c(C2CC(C)CCC2C(C)C)c(OC(=O)c2ccc([N+](=O)[O-])cc2[N+](=O)[O-])c1 (centres undefined)
T/C [9]: 104 % of control
T/C [10]: 88 % of control
T/C [11]: 88 % of control

C(=C/c1ccccc1)/C[P+](c1ccccc1)(c1ccccc1)c1ccccc1
T/C (dose: 1.25 mg/kg/injection, schedule: Q01DX009 (ip), vehicle: saline with Tween-80): 97 % of control
T/C (dose: 2.5 mg/kg/injection, schedule: Q01DX009 (ip), vehicle: saline with Tween-80): 94 % of control
T/C (dose: 5.0 mg/kg/injection, schedule: Q01DX009 (ip), vehicle: saline with Tween-80): 98 % of control
T/C (dose: 5.0 mg/kg/injection, schedule: Q04DX003 (ip), vehicle: saline with Tween-80): 98 % of control
T/C (dose: 10.0 mg/kg/injection, schedule: Q04DX003 (ip), vehicle: saline with Tween-80): 86 % of control
T/C (dose: 20.0 mg/kg/injection, schedule: Q04DX003 (ip), vehicle: saline with Tween-80): 90 % of control

CN(C)C(=O)NCc1cccs1
T/C (dose: 100.0 mg/kg/injection, schedule: Q04DX003 (ip), vehicle: carboxymethylcellulose (CMC)): 97 % of control
T/C (dose: 200.0 mg/kg/injection, schedule: Q04DX003 (ip), vehicle: carboxymethylcellulose (CMC)): 93 % of control
T/C (dose: 400.0 mg/kg/injection, schedule: Q04DX003 (ip), vehicle: carboxymethylcellulose (CMC)): 104 % of control

COc1cc(Cl)ccc1NC(=O)Oc1ccc(OCc2ccccc2)cc1
T/C [5]: 94 % of control
T/C [6]: 94 % of control
T/C (dose: 400.0 mg/kg/injection, schedule: Q01DX009 (ip), vehicle: Klucel (hydroxypropylcellulose) (HPC)): 97 % of control

CCS(=O)(=O)Nc1cccc(Nc2c3cccc(C)c3nc3c(C)cccc23)c1OC
T/C (dose: 5.5 mg/kg/injection, schedule: Q01DX009 (ip), vehicle: saline): 122 % of control
T/C (dose: 11.0 mg/kg/injection, schedule: Q04DX003 (ip), vehicle: saline): 113 % of control
T/C [7]: 155 % of control
T/C (dose: 12.5 mg/kg/injection, schedule: Q01DX009 (sc), vehicle: Klucel (hydroxypropylcellulose) (HPC)): 112 % of control
T/C (dose: 16.0 mg/kg/injection, schedule: Q04DX003 (ip), vehicle: saline): 114 % of control
T/C [8]: 181 % of control
T/C (dose: 25.0 mg/kg/injection, schedule: Q01DX009 (sc), vehicle: Klucel (hydroxypropylcellulose) (HPC)): 123 % of control
T/C (dose: 50.0 mg/kg/injection, schedule: Q01DX009 (ip), vehicle: saline with Tween-80): 103 % of control
T/C [14]: 157 % of control
T/C [2]: 170 % of control

COC1OC(CCl)C(O)C(O)C1O (centres undefined)
T/C (dose: 100.0 mg/kg/injection, schedule: Q04DX002 (ip), vehicle: saline): 98 % of control
T/C [15]: 93 % of control
T/C (dose: 200.0 mg/kg/injection, schedule: Q04DX002 (ip), vehicle: saline): 103 % of control
T/C [16]: 100 % of control
T/C (dose: 400.0 mg/kg/injection, schedule: Q04DX002 (ip), vehicle: saline): 106 % of control
T/C [17]: 89 % of control

CC(=O)[C@H]1CC[C@H]2[C@@H]3CCC4=CC(=O)CC[C@]4(C)[C@H]3CC[C@]12C
T/C (dose: 125.0 mg/kg/injection, schedule: Q01DX Z (sc), vehicle: steriod suspending solution): 97 % of control
T/C (dose: 250.0 mg/kg/injection, schedule: Q01DX Z (sc), vehicle: steriod suspending solution): 91 % of control
T/C (dose: 500.0 mg/kg/injection, schedule: Q01DX Z (sc), vehicle: steriod suspending solution): 96 % of control
T/C (dose: 1000.0 mg/kg/injection, schedule: Q01DX Z (sc), vehicle: steriod suspending solution): 92 % of control

N#C/C(=C1C=C(Br)/C(=N\O)C=C\1Cl)c1ccc(Cl)cc1
T/C (dose: 100.0 mg/kg/injection, schedule: Q01DX009 (ip), vehicle: acetone): 95 % of control
T/C (dose: 100.0 mg/kg/injection, schedule: Q04DX003 (ip), vehicle: acetone): 100 % of control
T/C (dose: 200.0 mg/kg/injection, schedule: Q04DX003 (ip), vehicle: acetone): 100 % of control
T/C (dose: 400.0 mg/kg/injection, schedule: Q04DX003 (ip), vehicle: acetone): 94 % of control

COc1ccc(/C=C2\CSC/C(=C/c3ccc(OC)cc3)C2=O)cc1
T/C [1]: 91 % of control
T/C [2]: 95 % of control
T/C [12]: 95 % of control
T/C [3]: 94 % of control
T/C [13]: 87 % of control
T/C (dose: 400.0 mg/kg/injection, schedule: Q04DX003 (ip), vehicle: saline): 97 % of control

Cc1ccc(COC(=O)Nc2ccc(Cl)c([N+](=O)[O-])c2)cc1
T/C (dose: 100.0 mg/kg/injection, schedule: Q01DX009 (ip), vehicle: saline with Tween-80): 92 % of control
T/C [15]: 102 % of control
T/C (dose: 200.0 mg/kg/injection, schedule: Q01DX009 (ip), vehicle: saline with Tween-80): 100 % of control
T/C [16]: 100 % of control
T/C (dose: 400.0 mg/kg/injection, schedule: Q01DX009 (ip), vehicle: saline with Tween-80): 95 % of control
T/C [17]: 100 % of control

COC(=O)C(=O)OC(=O)C(=O)OC
T/C (dose: 25.0 mg/kg/injection, schedule: Q04DX003 (ip), vehicle: saline): 104 % of control
T/C [14]: 120 % of control
T/C [2]: 92 % of control

O=C(C1=NNC(c2ccccc2)C1C(=O)c1ccccc1)c1ccccc1 (centres undefined)
T/C (dose: 100.0 mg/kg/injection, schedule: Q01DX001 (ip), vehicle: steriod suspending solution): 93 % of control
T/C (dose: 200.0 mg/kg/injection, schedule: Q01DX001 (ip), vehicle: steriod suspending solution): 110 % of control
T/C (dose: 400.0 mg/kg/injection, schedule: Q01DX001 (ip), vehicle: steriod suspending solution): 101 % of control
